Data on three molecules can be found in patent publication US20100323975A1, “THERAPEUTIC AGENT FOR CEREBRAL ISCHEMIC INJURY” (OTSUKA PHARMACEUTICAL FACTORY, INC., priority 2007, published 2010).

For data set [1], the system named is model of middle cerebral artery occlusion and subsequent reperfusion (cerebral ischemic injury). The data set can be described thus: Infarction rate in model of middle cerebral artery occlusion and subsequent reperfusion (Test Example 1). The conditions noted are these: for Infarction rate (mean value): 90 min occlusion, day after administration, control 49%. The data set is classed as in vivo, Wistar male rats. The source says:
Approximately 9-week-old Wistar male rats were used. The method of Koizumi et al. (Nou-socchu (Cerebral Apoplexy), Vol. 8, pp. 1-8, 1986) was applied to the rats under halothane anesthesia, so as to produce models of middle cerebral artery occlusion and subsequent reperfusion. Specifically, each rat was fixed under natural aspiration conditions under anesthesia with gas (initial anesthesia: performed in room air containing 3% halothane; continuous anesthesia: performed in room air containing 1% halothane), and the neck of the rat was then subjected to median incision. Subsequently, the left common carotid and external carotid artery was exfoliated from surrounding connective tissues, and it was then ligated with a ligature. After that, the internal carotid artery was exfoliated from surrounding connective tissues, and it was then ligated with a ligature. Further, using scissors, a hole was made on a site close to the branch point between the left external carotid artery and the internal carotid artery, and a silicon-coated portion of a nylon plug was then inserted into the internal carotid artery at a depth of 15 to 16 mm. Thereby, the tip of the inserted nylon plug exceeded the middle cerebral artery portion and reached the anterior cerebral artery, so that the inlet of the middle cerebral artery was occluded with the silicon-coated portion of the plug. […]
(§1) On the day after the administration of the agent, a test animal was anesthetized with ether, and the brain was then excised. […] A slice of brain section was placed, with a surface to be measured down, into each well of a 12-well plate, which had been filled with a 2% TTC solution prepared by dissolving 2,3,5-triphenyltetrazolium chloride (TTC) in a phosphate buffered saline. […] Thus, the area of an infarct on the measurement surface of each brain section (the site in which brain tissue was considered to be necrosed) was measured, and the obtained value was then multiplied by the thickness of the brain section, so as to obtain the volume of an infarct in each brain section. […]

The next data set has as its system Wistar male rats. Briefly: Identification of side effects after intravenous administration (Test Example 2). As to conditions: rat, in vivo. How it is done: (§2) 7- to 9-week-old Wistar male rats were divided into the following 8 administration groups. The number of rats in each group was set at 4. […]
L-histidine hydrochloride was dissolved in water for injection purpose, and the obtained solution was then adjusted to pH 6.0 with a sodium hydroxide aqueous solution. The obtained injection solution (L-histidine concentration: 10% (W/V)) was administered into the caudal vein of each rat at a rate of 60 mL/kg/hr for 10 minutes.
(§3) L-histidine was added to water for injection purpose, and acetic acid was further added thereto, so as to dissolve L-histidine in the solution. The obtained solution was adjusted to pH 6.0 with a sodium hydroxide aqueous solution. The obtained injection solution (L-histidine concentration: 10% (W/V)) was administered into the caudal vein of each rat at a rate of 60 mL/kg/hr for 10 minutes.
L-histidine was added to water for injection purpose, and citric acid was further added thereto, so as to dissolve L-histidine in the solution. The obtained solution was adjusted to pH 6.0 with a sodium hydroxide aqueous solution. The obtained injection solution (L-histidine concentration: 10% (W/V)) was administered into the caudal vein of each rat at a rate of 60 mL/kg/hr for 10 minutes.
β-alanyl-L-histidine was added to water for injection purpose, and the obtained solution was then adjusted to pH 7 with hydrochloric acid. The obtained injection solution (L-histidine concentration: 10% (W/V)) was administered into the caudal vein of each rat at a rate of 60 mL/kg/hr for 10 minutes. […]
(§4) After administration of the agent, blood was collected from each rat at regular time intervals, and the concentration of L-histidine (monomer) in blood was then measured using a high speed amino acid analyzer L-8800A (manufactured by Hitachi High-Technologies Corporation). […] In addition, the body temperature, blood pressure, and cardiac rate of each test animal were measured during the period from before administration of the agent until after the administration of the agent, and at the same time, the appearance of each test animal was observed, so as to examine the presence or absence of side effects caused by administration of the agent. The L-histidine concentration in blood was measured 15 minutes after the administration of the agent, and the presence or absence of side effects caused by such administration of the agent was examined.

Data set [2] can be described thus: Solubility in water at 25° C. The data set is classed as physicochemical.
Data set [3] can be described thus: Time course of L-histidine concentration in blood after administration of different dipeptides (Test Example 4). As to conditions: male, Wistar, rat, in vivo. The data set is classed as in vivo, Wister male rats. How it is done: 7- to 8-week-old Wister male rats were divided into the following 3 administration groups.
1.00 g of L-alanyl-L-histidine (manufactured by Bachem) was dissolved in water for injection purpose to prepare 13.70 mL (total amount) of solution. This solution was subjected to sterilization filtration, and it was then poured into syringes (10 mL each per syringe), so as to produce a therapeutic agent for cerebral ischemic injury having a dosage form as an injection. The concentration of L-alanyl-L-histidine in this therapeutic agent for cerebral ischemic injury was 0.32 mol/L (L-histidine concentration: 5% (W/V)).
1.00 g of L-histidyl-L-glycine (manufactured by Bachem) was dissolved in water for injection purpose to prepare 14.60 mL (total amount) of solution. This solution was subjected to sterilization filtration, and it was then poured into syringes (10 mL each per syringe), so as to produce a therapeutic agent for cerebral ischemic injury having a dosage form as an injection. The concentration of L-histidyl-L-glycine in this therapeutic agent for cerebral ischemic injury was 0.32 mol/L (L-histidine concentration: 5% (W/V)).
1.00 g of L-histidyl-L-glutamic acid (manufactured by Bachem) was dissolved in water for injection purpose to prepare 10.90 mL (total amount) of solution. This solution was subjected to sterilization filtration, and it was then poured into syringes (10 mL each per syringe), so as to produce a therapeutic agent for cerebral ischemic injury having a dosage form as an injection. The concentration of L-histidyl-L-glutamic acid in this therapeutic agent for cerebral ischemic injury was 0.32 mol/L (L-histidine concentration: 5% (W/V)).

Data set [4] is described as follows: L-histidine concentration in blood after intravenous administration (Test Example 2). The conditions noted are these: male, Wistar, rat, in vivo, 15 min. How it is done:
as §2
The therapeutic agent for cerebral ischemic injury obtained in Production Example 2 was diluted by a factor of 2, and the thus diluted solution was administered into the caudal vein of each rat at a rate of 60 mL/kg/hr for 10 minutes. […]
as §3
L-histidine was added to water for injection purpose, and citric acid was further added thereto, so as to dissolve L-histidine in the solution. The obtained solution was adjusted to pH 6.0 with a sodium hydroxide aqueous solution. The obtained injection solution (L-histidine concentration: 10% (W/V)) was administered into the caudal vein of each rat at a rate of 60 mL/kg/hr for 10 minutes. […]
as §4

The subject of data set [5] is model of middle cerebral artery occlusion and subsequent reperfusion (cerebral ischemic injury). The data set can be described thus: Infarction rate and cerebral edema rate in model of middle cerebral artery occlusion and subsequent reperfusion (Test Example 5). The data set is classed as in vivo, Wistar male rats. As to conditions: Production Example 4 injection (0.64 mol/L), caudal vein 60 mL/kg/hr for 10 minutes, immediately after and 6 hours after reperfusion; 120 min occlusion; 24 hours after reperfusion; FIG. 2.
Description: Approximately 7-week-old Wistar male rats were used. The method of Koizumi et al. (Nou-socchu (Cerebral Apoplexy), Vol. 8, pp. 1-8, 1986) was applied to the rats under halothane anesthesia, so as to produce models of middle cerebral artery occlusion and subsequent reperfusion. Specifically, each rat was fixed under natural aspiration conditions under anesthesia with gas (initial anesthesia: performed in room air containing 3% halothane; continuous anesthesia: performed in room air containing 1% halothane), and the neck of the rat was then subjected to median incision. […]
as §1, with “agent (24 hours after cerebral ischemia-reperfusion),” for “agent,”

Peptide text beside a SMILES is read from it.

With `CC1=NN(c2ccccc2)C(=O)C1` [Edaravone, 3-methyl-1-phenyl-2-pyrazoline-5-one], in data set [1] (Comparison group: bolus injection 3 mg/kg immediately after and 30 minutes after reperfusion), the “Infarction rate (mean value)” value stood at 38%.
Turning to `C[C@H](N)C(=O)N[C@@H](Cc1c[nH]cn1)C(=O)O` [L-alanyl-L-histidine] (H-Ala-His-OH), the Side effects entry with Wistar male rats is “None”. Also, the solubility in data set [2] was at least 3500 mM. The “L-histidine concentration in blood” value was 7588.27 nmol/mL in data set [3] (0 min); 3802.80 nmol/mL in data set [3] (15 min); 2198.93 nmol/mL in data set [3] (30 min); 770.17 nmol/mL in data set [3] (60 min); 268.77 nmol/mL in data set [3] (120 min); 76.67 nmol/mL in data set [3] (-10 min). The “L-histidine concentration in blood immediately after completion of administration, relative to second administration group (L-histidyl-L-glycine)” value in data set [3] (0 min) is reported as “approximately 2 times”. Further, the “L-histidine concentration in blood immediately after completion of administration, relative to third administration group (L-histidyl-L-glutamic acid)” value in data set [3] (0 min) is recorded as “approximately 5 times”. Moreover, the “Cerebral ischemic injury during cerebral ischemia-reperfusion compared with control group and comparison group” value in data set [1] (Experiment group, Production Example 1 injection) was “remarkably suppressed”. In addition, the “Infarction rate (mean value)” value in data set [1] (Experiment group: Production Example 1 injection (1.29 mol/L), caudal vein 60 mL/kg/hr for 10 minutes, immediately after and 6 hours after reperfusion) came to 20%. For the same molecule, the “Factor of increase of L-histidine concentration in blood when the concentration administered was increased by a factor of 2” value in data set [4] was 3-3.5.
Turning to `NCC(=O)N[C@@H](Cc1c[nH]cn1)C(=O)O` [glycyl-L-histidine] (H-Gly-His-OH), the Side effects result with Wistar male rats is listed as “None”. This molecule returned a solubility in data set [2] of at least 3500 mM. In addition, in data set [5], the “Cerebral edema rate compared with control group” value was “remarkably suppressed” and the “Infarction rate compared with control group” value is “remarkably suppressed”. Further, in data set [4], the “L-histidine concentration in blood (mean value)” value is reported as 6.2 mM.

Usually solubility stands for the dissolved amount per volume that the medium holds.
